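Five concentrations, 48 hours, 96-well plates. GI50 is the concentration that inhibits growth by half.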 Activity calls are given as the source filed them. Cut-off read from the data, not from the text of the source: active = GI50 up to about 1.1 µM and inactive = higher.
Assays:
Assay in all cases: growth of human tumour cells (NCI), 48 h
SF-295 = tested on: SF-295
MDA-MB-435 = tested on: MDA-MB-435
SK-OV-3 = tested on: SK-OV-3
SW-620 = tested on: SW-620
CCRF-CEM = tested on: CCRF-CEM
KM12 = tested on: KM12
LOX IMVI = tested on: LOX IMVI
PC-3 = tested on: PC-3
COLO 205 = tested on: COLO 205
HL-60 = tested on: HL-60
MOLT-4 = tested on: MOLT-4
OVCAR-3 = tested on: OVCAR-3
A498 = tested on: A498
UACC-257 = tested on: UACC-257
Malme-3M = tested on: Malme-3M
NCI-H23 = tested on: NCI-H23
SF-268 = tested on: SF-268
M14 = tested on: M14
HCC 2998 = tested on: HCC 2998

Measured: GI50

CCOC(=O)c1cccn1S(=O)(=O)c1cc(Cl)ccc1NC(=O)CC
inactive: SF-295 35.2 µM | MDA-MB-435 33.3 µM | SK-OV-3 43.3 µM | SW-620 > 100 µM | CCRF-CEM > 100 µM | KM12 44.9 µM | LOX IMVI 70.5 µM | PC-3 59.2 µM | COLO 205 16.3 µM | HL-60 > 100 µM | MOLT-4 47.8 µM | OVCAR-3 > 100 µM | A498 > 100 µM | UACC-257 > 100 µM

CC(=O)Nc1ccc(Cc2ccc3nc(O)cc(C)c3c2)cc1
inactive: SF-295 29.9 µM | MDA-MB-435 > 100 µM | SK-OV-3 87.3 µM | SW-620 > 100 µM | CCRF-CEM > 100 µM | KM12 > 100 µM | LOX IMVI > 100 µM | PC-3 50.5 µM | COLO 205 57.4 µM | HL-60 > 100 µM | Malme-3M 87.7 µM | NCI-H23 > 100 µM | MOLT-4 > 100 µM | OVCAR-3 > 100 µM | A498 > 100 µM | UACC-257 67 µM | SF-268 > 100 µM | M14 > 100 µM

Cc1ccc(S(=O)(=O)n2cc(/C=C/C#N)c(-c3cn(S(=O)(=O)c4ccc(C)cc4)cc3-c3cn(S(=O)(=O)c4ccc(C)cc4)cc3/C=C/C#N)c2)cc1
inactive: SF-295 44.8 µM | MDA-MB-435 > 100 µM | SK-OV-3 > 100 µM | KM12 91.6 µM | LOX IMVI 93.8 µM | PC-3 94.2 µM | COLO 205 58.7 µM | Malme-3M > 100 µM | NCI-H23 87.7 µM | OVCAR-3 > 100 µM | A498 > 100 µM | UACC-257 > 100 µM | SF-268 > 100 µM | M14 47 µM

O=C1Nc2ccccc2/C1=N/Nc1ncccc1[N+](=O)[O-]
inactive: SF-295 17.2 µM | MDA-MB-435 16.8 µM | SK-OV-3 12.1 µM | SW-620 8.13 µM | KM12 3.42 µM | LOX IMVI 7.55 µM | PC-3 12.4 µM | Malme-3M 17.3 µM | MOLT-4 48.1 µM | OVCAR-3 6.25 µM | A498 71.3 µM | UACC-257 23 µM | SF-268 11.9 µM | M14 16.3 µM

CC(C)(C)OC(=O)N1C(=O)OC[C@@H]2C=C[C@@H]21
inactive: SF-295 > 100 µM | MDA-MB-435 > 100 µM | SK-OV-3 > 100 µM | SW-620 > 100 µM | CCRF-CEM > 100 µM | KM12 > 100 µM | LOX IMVI > 100 µM | PC-3 > 100 µM | COLO 205 > 100 µM | HL-60 > 100 µM | Malme-3M > 100 µM | NCI-H23 > 100 µM | MOLT-4 > 100 µM | OVCAR-3 > 100 µM | A498 > 100 µM | UACC-257 > 100 µM | SF-268 > 100 µM | M14 > 100 µM

C=CCN1C(=O)C=C(c2ccccc2)n2ncc3cccc1c32
inactive: SF-295 > 100 µM | MDA-MB-435 1.46 µM | SK-OV-3 > 100 µM | SW-620 > 100 µM | CCRF-CEM 67.9 µM | KM12 47.8 µM | LOX IMVI > 100 µM | PC-3 > 100 µM | COLO 205 > 100 µM | HL-60 > 100 µM | Malme-3M > 100 µM | NCI-H23 > 100 µM | MOLT-4 > 100 µM | OVCAR-3 > 100 µM | A498 44.3 µM | UACC-257 > 100 µM | SF-268 > 100 µM | M14 > 100 µM

CC(=O)Nc1ccc2c(c1)nc1c3ccccc3ccn21
inactive: SF-295 85.9 µM | MDA-MB-435 > 100 µM | SK-OV-3 > 100 µM | SW-620 > 100 µM | CCRF-CEM 27.8 µM | KM12 81.1 µM | LOX IMVI > 100 µM | PC-3 > 100 µM | COLO 205 > 100 µM | HL-60 > 100 µM | Malme-3M > 100 µM | NCI-H23 > 100 µM | MOLT-4 > 100 µM | A498 > 100 µM | UACC-257 > 100 µM | SF-268 > 100 µM | M14 > 100 µM

O=C(CN1CCNCCN(CC(=O)N2CCCCC2)CCNCC1)N1CCCCC1
inactive: SF-295 > 100 µM | MDA-MB-435 > 100 µM | SK-OV-3 > 100 µM | SW-620 58.2 µM | CCRF-CEM 52.4 µM | KM12 17.6 µM | LOX IMVI > 100 µM | PC-3 > 100 µM | COLO 205 > 100 µM | HL-60 32.2 µM | Malme-3M > 100 µM | MOLT-4 84.7 µM | OVCAR-3 > 100 µM | A498 > 100 µM | UACC-257 > 100 µM | M14 > 100 µM

O=S(=O)(O)c1ccc2c(/N=N/c3ccc(Cl)cc3)c(O)ccc2c1
inactive: SF-295 > 100 µM | MDA-MB-435 > 100 µM | SK-OV-3 > 100 µM | SW-620 > 100 µM | CCRF-CEM > 100 µM | KM12 > 100 µM | LOX IMVI > 100 µM | PC-3 > 100 µM | COLO 205 > 100 µM | Malme-3M > 100 µM | NCI-H23 > 100 µM | MOLT-4 > 100 µM | OVCAR-3 > 100 µM | A498 > 100 µM | UACC-257 > 100 µM | SF-268 > 100 µM | M14 > 100 µM

CSCCC(NC(=O)Cc1ccc(C(=O)c2ccccc2)cc1)C(=O)N1CCN(CCCCN2c3ccccc3Sc3cc(N=[N+]=[N-])ccc32)CC1 (stereo unspecified)
inactive: SF-295 47.6 µM | SK-OV-3 > 100 µM | CCRF-CEM 49.3 µM | KM12 20.4 µM | LOX IMVI > 100 µM | PC-3 65.9 µM | COLO 205 > 100 µM | HL-60 30.6 µM | Malme-3M > 100 µM | NCI-H23 27.9 µM | MOLT-4 > 100 µM | OVCAR-3 > 100 µM | A498 72.3 µM | UACC-257 > 100 µM | HCC 2998 > 100 µM | SF-268 > 100 µM

N#CC1=C(Nc2ccccc2)SC=C(c2ccccc2)N=C1NCc1ccccc1
inactive: MDA-MB-435 > 100 µM | SK-OV-3 > 100 µM | SW-620 > 100 µM | KM12 > 100 µM | PC-3 > 100 µM | COLO 205 65.5 µM | Malme-3M > 100 µM | NCI-H23 > 100 µM | MOLT-4 72.6 µM | OVCAR-3 > 100 µM | A498 > 100 µM | SF-268 > 100 µM | M14 > 100 µM

Clc1ccc(OCc2nn3c(CCc4nnc5sc(COc6ccc(Cl)cc6)nn45)nnc3s2)cc1
inactive: SF-295 24.5 µM | MDA-MB-435 24.9 µM | SK-OV-3 28.8 µM | SW-620 25.2 µM | CCRF-CEM 29.1 µM | KM12 18 µM | LOX IMVI 37.2 µM | PC-3 15.6 µM | HL-60 18.8 µM | NCI-H23 15.3 µM | MOLT-4 6.62 µM | OVCAR-3 16 µM | A498 11.9 µM | UACC-257 22.9 µM | SF-268 5.61 µM | M14 33.7 µM

CC(=O)NNc1nc(-c2ccc([N+](=O)[O-])cc2)c(C#N)c(=O)n1C
inactive: SF-295 47.5 µM | MDA-MB-435 50.6 µM | SK-OV-3 > 100 µM | SW-620 33.4 µM | CCRF-CEM 50.7 µM | KM12 54.1 µM | LOX IMVI 16.9 µM | PC-3 37.7 µM | COLO 205 44.6 µM | HL-60 25.9 µM | Malme-3M > 100 µM | NCI-H23 29.4 µM | MOLT-4 36.8 µM | OVCAR-3 15.3 µM | A498 25.5 µM | UACC-257 > 100 µM | SF-268 33.1 µM | M14 > 100 µM

N#C[BH2-][n+]1cn(C2CC(O)C(COP(=O)(O)OC3CC(n4ccc(N)nc4=O)OC3CO)O2)c2nc(N)[nH]c(=O)c21 (stereo unspecified)
inactive: SF-295 > 100 µM | CCRF-CEM > 100 µM | KM12 > 100 µM | PC-3 > 100 µM | COLO 205 > 100 µM | HL-60 > 100 µM | Malme-3M > 100 µM | NCI-H23 > 100 µM | MOLT-4 > 100 µM | OVCAR-3 > 100 µM | A498 > 100 µM | UACC-257 > 100 µM | HCC 2998 > 100 µM | SF-268 > 100 µM | M14 > 100 µM

CN1CCN(CCCBr)CC1
inactive: SF-295 > 100 µM | MDA-MB-435 > 100 µM | SK-OV-3 > 100 µM | SW-620 > 100 µM | CCRF-CEM > 100 µM | KM12 > 100 µM | LOX IMVI > 100 µM | PC-3 > 100 µM | COLO 205 > 100 µM | HL-60 > 100 µM | Malme-3M > 100 µM | NCI-H23 > 100 µM | OVCAR-3 > 100 µM | A498 > 100 µM | UACC-257 > 100 µM | SF-268 > 100 µM | M14 > 100 µM

Nc1ccccc1/C=C\c1ccccc1
inactive: SF-295 > 100 µM | MDA-MB-435 > 100 µM | SK-OV-3 > 100 µM | SW-620 > 100 µM | CCRF-CEM > 100 µM | KM12 > 100 µM | PC-3 > 100 µM | HL-60 > 100 µM | Malme-3M > 100 µM | NCI-H23 > 100 µM | MOLT-4 > 100 µM | OVCAR-3 > 100 µM | UACC-257 > 100 µM | SF-268 > 100 µM | M14 > 100 µM

CC(C)(C)[Si](C)(C)OCCc1ccccc1C1CC2(S(=O)(=O)c3ccccc3)ON1CC2S(=O)(=O)c1ccccc1 (stereo unspecified)
inactive: SF-295 > 100 µM | MDA-MB-435 > 100 µM | SK-OV-3 > 100 µM | SW-620 > 100 µM | CCRF-CEM > 100 µM | KM12 > 100 µM | COLO 205 > 100 µM | NCI-H23 > 100 µM | MOLT-4 > 100 µM | OVCAR-3 > 100 µM | A498 > 100 µM | UACC-257 > 100 µM | HCC 2998 > 100 µM | SF-268 > 100 µM | M14 > 100 µM
